What was measured:
[1] = test system: THP1-Dual™ cells (IRF-Lucia luciferase reporter); test: THP1-Dual™ cell reporter assay; format: cell-based, human; details: free drug, 24 h (48 h elsewhere in the source)
Protocol: Potency of compounds and ADCs was evaluated using the THP1-Dual™ cells (Invivogen PN: thpd-nfis [also referred to as THP1 dual reporter cells]), which contain an IRF-Lucia luciferase reporter. Cells were cultured in RPMI-1640 (Gibco) with 10% heat-inactivated fetal bovine serum, Pen-Strep (100 U/mL-100 […], Gibco), HEPES (10 mM, Gibco)), sodium pyruvate (1 mM, Gibco), MEM non-essential amino acids (1×, Gibco), GlutaMAX (1×, Gibco), and beta-mercaptoethanol (55 μM, Gibco). Cells were plated in a 96-well flat bottom tissue culture-treated clear polystyrene plate (Corning Costar #3596) at ˜100,000 cells per well in 200 μL with the indicated concentration of the compound or ADC. The supernatant was harvested at 24 hours (compounds) or 48 hours (ADC) post plating for the reporter assay, or as indicated. To measure Lucia reporter signal, 10 µL of the supernatant was combined with 40 µL of QUANTI-Luc™ Luminescence assay reagent (Invivogen PN: rep-qlc1) in a 96-well clear flat bottom tissue culture-treated black polystyrene plate (Corning Costar #3603) and read on a Perkin Elmer Envision plate reader.

[2] = test system: wild type (WT) murine bone marrow-derived macrophages; test: Bone marrow-derived macrophage assay, wild type; format: cell-based, mouse; details: 24 hours
Protocol: Potency of the compounds described herein was evaluated using mouse bone-marrow derived macrophages cultured from wild type (C57BL/6J, the Jackson Laboratory #000664) or STING-deficient (C57BL/6J-Sting1^gt/J, the Jackson Laboratory #017537) mice. Briefly, mouse bone marrow cells were cultured for 7-10 days in RPMI-1640 (Gibco) with 10% heat-inactivated fetal bovine serum, Pen-Strep (100 U/mL-100 […], Gibco), HEPES (10 mM, Gibco), sodium pyruvate (1 mM, Gibco), GlutaMAX (1×, Gibco), beta-mercaptoethanol ([…], Gibco) and 20-40 ng/mL murine M-CSF (Peprotech, #315-02). Cells were plated in a 96-well flat bottom tissue culture-treated clear polystyrene plate (Corning Costar #3596) at ˜100,000 cells per well in 200 μL with the indicated concentration of the compound. The supernatant was harvested at 24 hours and cytokines were measured using a Milliplex MAP mouse cytokine/chemokine magnetic bead panel assay kit (MCYTOMAG-70k custom 11-plex kit: MCP1, MIP1α, MIP1β, TNFα, IFNγ, IL-10, IL-12p70, IL-1β, IL-6, IP10, RANTES) and analyzed using a Luminex™ MAGPIX™ Instrument System.

[3] = test system: Renca tumor-bearing mice; test: In vivo cytokine assay, Renca tumor-bearing mice; design: species or system mouse; details: for systemic pro-inflammatory cytokine (IL-6 and TNF) production: plasma; for IFNγ in plasma / IL1β in plasma / IL12p70 in plasma / IL-6 in plasma / IL-10 in plasma / IP10 in plasma / MCP-1 in plasma / MIP1α in plasma / MIP1β in plasma: 1.86 mg/kg
Protocol: Cytokines were measured in mouse plasma harvested at 3, 6, 24, or 48 hours after treatment with compounds or ADCs using a Milliplex MAP mouse cytokine/chemokine magnetic bead panel assay kit (MCYTOMAG-70k custom 11-plex kit: MCP1, MIP1a, MIP1(3, TNFα, IFNγ, IL-10, IL-12p70, IL-6, IL-1β, IP10, RANTES) and analyzed using a Luminex™ MAGPIX™ Instrument System. Values that were outside of the standard curve range (<3.2 or […]) were either excluded from calculation of the mean values or, when indicated, converted to […] for calculation of the mean values.
Renca cancer cells (ATCC) were cultured in RPMI-1640 (ATCC) with 10% heat-inactivated fetal bovine serum, Pen-Strep (100 U/mL-100 μg/mL), MEM non-essential amino acids (1×), sodium pyruvate (1 mM), and L-glutamine (2 mM). Renca cancer cells were implanted (2*10^6 cells in 200 μL 25% Matrigel) subcutaneously into Balb/c female mice. In some experiments, Renca tumor cells were engineered to express the indicated murine or human target antigen.
(§1) When tumor volumes reached 100 mm^3, the mice were dosed with either compounds or ADCs by intraperitoneal or intravenous injection at the indicated dosing schedule and tumor volumes were monitored twice weekly. Compounds were formulated in 40% PEG400 in saline.
(§2) A syngeneic system was used to assess the ability of the STING agonist ADCs to induce immune responses in vivo and drive an anti-tumor immune response. The Renca system is a subcutaneous, mouse renal adenocarcinoma model. Female Balb/c mice were implanted with 2×10^6 Renca cells subcutaneously in the flank on day 0. When mean tumor size of 100 mm^3 (measured by using the formula Volume (mm^3)=0.5*Length*Width^2 where length is the longer dimension) was reached mice were randomized into treatment groups of ≥5 mice per group. Animals were then treated intraperitoneally (ADCs or compounds) or intravenously (compounds) with the indicated treatment every 7 days, for 3 doses total (or as indicated). Tumor length and width and the weight of the animals was measured throughout the study and tumor volume was calculated using the formula above. Animals were followed until the tumor volume reached ˜1000 mm^3; animals were then euthanized.

[4] = test system: Renca cancer cells; test: In vivo anti-tumor activity, Renca tumor model
Protocol: In some experiments, Renca tumor cells were engineered to express the indicated murine or human target antigen.
as §1, §2

[5] = test system: human CD228-LL2 tumor-bearing mice; test: In vivo cytokine assay, human CD228-LL2 tumor-bearing mice; design: species or system mouse
Protocol: Cytokines were measured in mouse plasma harvested at 3, 6, 24, or 48 hours after treatment with compounds or ADCs using a Milliplex MAP mouse cytokine/chemokine magnetic bead panel assay kit (MCYTOMAG-70k custom 11-plex kit: MCP1, MIP1a, MIP1(3, TNFα, IFNγ, IL-10, IL-12p70, IL-6, IL-1β, IP10, RANTES) and analyzed using a Luminex™ MAGPIX™ Instrument System. Values that were outside of the standard curve range (<3.2 or >10,000 μg/mL) were either excluded from calculation of the mean values or, when indicated, converted to 3.2 or 10,000 μg/mL for calculation of the mean values.
LL2 cancer cells were engineered using lentiviral transduction to express human CD228. LL2 cells were cultured in DMEM (ATCC) with 10% heat-inactivated fetal bovine serum. Female C57BL/6 mice were implanted with 1×10^6 hCD228-LL2 tumor cells in 100 μL 25% Matrigel in RPMI 1640 medium subcutaneously. Once tumor volumes reached 100 mm^3, mice were randomized into treatment groups and dosed as indicated. […] Stock concentrations of mAb or conjugates were diluted to a desired concentration (with 20 mM His, 6% Trehalose or 0.01% Tween20 in PBS) and injected intraperitoneally (i.p.) or intravenously (i.v.) as indicated. The small molecule was formulated in 40% PEG400 in saline and injected i.v.

[6] = dose 1, 6 h, 0.08 mg/kg Q7Dx3 i.v.
[7] = dose 1, 6 h, 1.5 mg/kg Q7Dx3 i.v.
[8] = dose 2, 6 h, 0.08 mg/kg Q7Dx3 i.v.
[9] = dose 2, 6 h, 1.5 mg/kg Q7Dx3 i.v.
[10] = dose 3, 6 h, 0.08 mg/kg Q7Dx3 i.v.
[11] = dose 3, 6 h, 1.5 mg/kg Q7Dx3 i.v.

SMILES: CCn1nc(C)cc1C(=O)Nc1nc2cc(C(N)=O)cc(OC)c2n1C/C=C/Cn1c(NC(=O)c2cc(C)nn2CC)nc2cc(C(N)=O)cc(OCCCNC)c21 [Compound 12a]
- relative potency of free drug, Lucia reporter [1]: less potent than compound 1 and compound A
- cytokine production [2]: induced cytokine production
- systemic pro-inflammatory cytokine (IL-6 and TNF) production [3]: induced robust production of IL-6 and TNF
- tumor growth / anti-tumor activity ([4]; Renca, q7dx3): limited anti-tumor efficacy

SMILES: CCn1nc(C)cc1C(=O)Nc1nc2cc(C(N)=O)cc(OC)c2n1C/C=C/Cn1c(NC(=O)c2cc(C)nn2CC)nc2cc(C(N)=O)cc(OCCCN3CCOCC3)c21.O=C(O)C(F)(F)F.O=C(O)C(F)(F)F.O=C(O)C(F)(F)F [Compound A, (E)-1-(4-(5-carbamoyl-2-(1-ethyl-3-methyl-1H-pyrazole-5-carboxamido)-7-(3-morpholinopropoxy)-1H-benzo[d]imidazol-1-yl)but-2-en-1-yl)-2-(1-ethyl-3-methyl-1H-pyrazole-5-carboxamido)-7-methoxy-1H-benzo[d]imidazole-5-carboxamide tris(2,2,2-trifluoroacetate)]
- relative potency of free drug, Lucia reporter [1]: significantly more potent than (2′, 3′)-Rp,Rpc-diAMPS disodium (Compound B)
- IFNγ in plasma ([3]; 3 h after treatment): 0.3 pg/mL
- IL1β in plasma ([3]; 3 h after treatment): 1.5 pg/mL
- IL12p70 in plasma ([3]; 3 h after treatment): 0.2 pg/mL
- IL-6 in plasma ([3]; 3 h after treatment): 3550 pg/mL
- IL-10 in plasma ([3]; 3 h after treatment): 0.5 pg/mL
- IP10 in plasma ([3]; 3 h after treatment): 4780 pg/mL
- MCP-1 in plasma ([3]; 3 h after treatment): 14500 pg/mL
- MIP1α in plasma ([3]; 3 h after treatment): 1300 pg/mL
- MIP1β in plasma ([3]; 3 h after treatment): 6370 pg/mL
- IFNγ in plasma ([3]; 6 h after treatment): 71.8 pg/mL
- IL1β in plasma ([3]; 6 h after treatment): 0.6 pg/mL
- IL12p70 in plasma ([3]; 6 h after treatment): 0.2 pg/mL
- IL-6 in plasma ([3]; 6 h after treatment): 732 pg/mL
- IL-10 in plasma ([3]; 6 h after treatment): < 3.2 pg/mL
- IP10 in plasma ([3]; 6 h after treatment): 4980 pg/mL
- MCP-1 in plasma ([3]; 6 h after treatment): 10800 pg/mL
- MIP1α in plasma ([3]; 6 h after treatment): 209 pg/mL
- MIP1β in plasma ([3]; 6 h after treatment): 2150 pg/mL
- IFNγ in plasma ([3]; 24 h after treatment): < 3.2 pg/mL
- IL1β in plasma ([3]; 24 h after treatment): 0.3 pg/mL
- IL12p70 in plasma ([3]; 24 h after treatment): < 3.2 pg/mL
- IL-6 in plasma ([3]; 24 h after treatment): 16.4 pg/mL
- IL-10 in plasma ([3]; 24 h after treatment): < 3.2 pg/mL
- IP10 in plasma ([3]; 24 h after treatment): 890 pg/mL
- MCP-1 in plasma ([3]; 24 h after treatment): 540 pg/mL
- MIP1α in plasma ([3]; 24 h after treatment): 41.7 pg/mL
- MIP1β in plasma ([3]; 24 h after treatment): 35.5 pg/mL
- systemic pro-inflammatory cytokine (IL-6 and TNF) production [3]: induced robust production of IL-6 and TNF
- IFNg, peripheral blood (plasma), mean [5, 6]: 9.8 pg/mL
- IL1b, peripheral blood (plasma), mean [5, 6]: 12.1 pg/mL
- IL-6, peripheral blood (plasma), mean [5, 6]: 346.7 pg/mL
- IL-10, peripheral blood (plasma), mean [5, 6]: 15.8 pg/mL
- IL-12p70, peripheral blood (plasma), mean [5, 6]: 3.0 pg/mL
- IP10, peripheral blood (plasma), mean [5, 6]: 7501.0 pg/mL
- MCP-1, peripheral blood (plasma), mean [5, 6]: 3780.5 pg/mL
- MIP1a, peripheral blood (plasma), mean [5, 6]: 107.1 pg/mL
- MIP1b, peripheral blood (plasma), mean [5, 6]: 474.6 pg/mL
- RANTES, peripheral blood (plasma), mean [5, 6]: 33.9 pg/mL
- TNFa, peripheral blood (plasma), mean [5, 6]: 11.0 pg/mL
- IFNg, peripheral blood (plasma), mean [5, 7]: 392.4 pg/mL
- IL1b, peripheral blood (plasma), mean [5, 7]: 38.0 pg/mL
- IL-6, peripheral blood (plasma), mean [5, 7]: 10532.0 pg/mL
- IL-10, peripheral blood (plasma), mean [5, 7]: 71.5 pg/mL
- IL-12p70, peripheral blood (plasma), mean [5, 7]: 32.3 pg/mL
- IP10, peripheral blood (plasma), mean [5, 7]: >10000 pg/mL
- MCP-1, peripheral blood (plasma), mean [5, 7]: 10000.0 pg/mL
- MIP1a, peripheral blood (plasma), mean [5, 7]: 574.2 pg/mL
- MIP1b, peripheral blood (plasma), mean [5, 7]: 4253.1 pg/mL
- RANTES, peripheral blood (plasma), mean [5, 7]: 1705.3 pg/mL
- TNFa, peripheral blood (plasma), mean [5, 7]: 95.7 pg/mL
- IFNg, peripheral blood (plasma), mean [5, 8]: 11.7 pg/mL
- IL1b, peripheral blood (plasma), mean [5, 8]: 26.2 pg/mL
- IL-6, peripheral blood (plasma), mean [5, 8]: 936.6 pg/mL
- IL-10, peripheral blood (plasma), mean [5, 8]: 9.5 pg/mL
- IL-12p70, peripheral blood (plasma), mean [5, 8]: 9.7 pg/mL
- IP10, peripheral blood (plasma), mean [5, 8]: 9045.3 pg/mL
- MCP-1, peripheral blood (plasma), mean [5, 8]: 7114.6 pg/mL
- MIP1a, peripheral blood (plasma), mean [5, 8]: 206.0 pg/mL
- MIP1b, peripheral blood (plasma), mean [5, 8]: 1550.3 pg/mL
- RANTES, peripheral blood (plasma), mean [5, 8]: 236.6 pg/mL
- TNFa, peripheral blood (plasma), mean [5, 8]: 18.4 pg/mL
- IFNg, peripheral blood (plasma), mean [5, 9]: 1550.6 pg/mL
- IL1b, peripheral blood (plasma), mean [5, 9]: 57.4 pg/mL
- IL-6, peripheral blood (plasma), mean [5, 9]: 22725.1 pg/mL
- IL-10, peripheral blood (plasma), mean [5, 9]: 92.3 pg/mL
- IL-12p70, peripheral blood (plasma), mean [5, 9]: 75.4 pg/mL
- IP10, peripheral blood (plasma), mean [5, 9]: >10000 pg/mL
- MCP-1, peripheral blood (plasma), mean [5, 9]: >10000 pg/mL
- MIP1a, peripheral blood (plasma), mean [5, 9]: 846.6 pg/mL
- MIP1b, peripheral blood (plasma), mean [5, 9]: 5235.4 pg/mL
- RANTES, peripheral blood (plasma), mean [5, 9]: 1906.1 pg/mL
- TNFa, peripheral blood (plasma), mean [5, 9]: 204.0 pg/mL
- IFNg, peripheral blood (plasma), mean [5, 10]: 21.9 pg/mL
- IL1b, peripheral blood (plasma), mean [5, 10]: 66.6 pg/mL
- IL-6, peripheral blood (plasma), mean [5, 10]: 1494.7 pg/mL
- IL-10, peripheral blood (plasma), mean [5, 10]: 36.3 pg/mL
- IL-12p70, peripheral blood (plasma), mean [5, 10]: 220.3 pg/mL
- IP10, peripheral blood (plasma), mean [5, 10]: 7718.5 pg/mL
- MCP-1, peripheral blood (plasma), mean [5, 10]: 5009.1 pg/mL
- MIP1a, peripheral blood (plasma), mean [5, 10]: 270.0 pg/mL
- MIP1b, peripheral blood (plasma), mean [5, 10]: 1009.6 pg/mL
- RANTES, peripheral blood (plasma), mean [5, 10]: 172.9 pg/mL
- TNFa, peripheral blood (plasma), mean [5, 10]: 29.6 pg/mL
- IFNg, peripheral blood (plasma), mean [5, 11]: 1236.8 pg/mL
- IL1b, peripheral blood (plasma), mean [5, 11]: 36.8 pg/mL
- IL-6, peripheral blood (plasma), mean [5, 11]: 14635.1 pg/mL
- IL-10, peripheral blood (plasma), mean [5, 11]: 62.8 pg/mL
- IL-12p70, peripheral blood (plasma), mean [5, 11]: 43.9 pg/mL
- IP10, peripheral blood (plasma), mean [5, 11]: >10000 pg/mL
- MCP-1, peripheral blood (plasma), mean [5, 11]: >10000 pg/mL
- MIP1a, peripheral blood (plasma), mean [5, 11]: 743.4 pg/mL
- MIP1b, peripheral blood (plasma), mean [5, 11]: 4517.1 pg/mL
- RANTES, peripheral blood (plasma), mean [5, 11]: 2533.7 pg/mL
- TNFa, peripheral blood (plasma), mean [5, 11]: 195.3 pg/mL
- tolerability ([4]; Renca tumor-bearing mice): less well tolerated
- average weight loss ([4]; after the 2nd dose): 6.2%

Reference: patent publication US20250255981A1, “IMMUNOMODULATORY ANTIBODY-DRUG CONJUGATES” (Seagen Inc., priority 2022, published 2025)
